Like-named read-outs stand apart in the source and are kept apart here.
Key:
[1] = biological target: T1, KOR (Cavia porcellus, UniProt P41144); assay: Opioid receptor binding, KOR, guinea pig brain membranes
T1 construct: from tissue

[2] = biological target: T2, MOR (Rattus norvegicus, UniProt P33535); assay: Opioid receptor binding, MOR, rat brain membranes
T2 construct: from tissue

[3] = biological target: T3, DOR (Rattus norvegicus, UniProt P33533); assay: Opioid receptor binding, DOR, rat brain membranes
T3 construct: from tissue
T3 sequence (P33533 whole entry): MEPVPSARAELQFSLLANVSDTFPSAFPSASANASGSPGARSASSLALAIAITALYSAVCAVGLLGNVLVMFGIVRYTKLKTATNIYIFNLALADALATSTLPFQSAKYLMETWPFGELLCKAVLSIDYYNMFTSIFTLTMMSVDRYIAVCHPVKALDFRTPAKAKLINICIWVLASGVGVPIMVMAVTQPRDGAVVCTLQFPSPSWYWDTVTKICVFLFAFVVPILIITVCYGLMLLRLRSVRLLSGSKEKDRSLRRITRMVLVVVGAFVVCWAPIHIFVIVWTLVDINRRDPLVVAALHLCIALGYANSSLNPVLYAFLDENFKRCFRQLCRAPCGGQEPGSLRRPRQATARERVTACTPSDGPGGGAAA

[4] = Binding Ki KOR, Table 2-6, guinea pig brain membranes
[5] = Binding Ki MOR, Table 2-6, rat brain membranes
[6] = Binding Ki DOR, Table 2-6, rat brain membranes
[7] = Binding Ki (nM) KOR, in vitro binding assay, guinea pig brain membranes
[8] = Binding Ki KOR, Table 1-4, guinea pig brain membranes
[9] = Binding Ki (nM) MOR, in vitro binding assay, rat brain membranes
[10] = Binding Ki MOR, Table 1-4, rat brain membranes
[11] = Binding Ki (nM) DOR, in vitro binding assay, rat brain membranes
[12] = Binding Ki DOR, Table 1-4, rat brain membranes
[13] = Table 1-4, guinea pig brain membranes, read-out: Binding Ki KOR
[14] = Table 1-4, rat brain membranes, read-out: Binding Ki MOR
[15] = Table 1-4, rat brain membranes, read-out: Binding Ki DOR
[16] = Binding Ki KOR, Table 1-6, guinea pig brain membranes
[17] = Binding Ki MOR, Table 1-6, rat brain membranes
[18] = Binding Ki DOR, Table 1-6, rat brain membranes

T1 sequence (P41144 whole entry): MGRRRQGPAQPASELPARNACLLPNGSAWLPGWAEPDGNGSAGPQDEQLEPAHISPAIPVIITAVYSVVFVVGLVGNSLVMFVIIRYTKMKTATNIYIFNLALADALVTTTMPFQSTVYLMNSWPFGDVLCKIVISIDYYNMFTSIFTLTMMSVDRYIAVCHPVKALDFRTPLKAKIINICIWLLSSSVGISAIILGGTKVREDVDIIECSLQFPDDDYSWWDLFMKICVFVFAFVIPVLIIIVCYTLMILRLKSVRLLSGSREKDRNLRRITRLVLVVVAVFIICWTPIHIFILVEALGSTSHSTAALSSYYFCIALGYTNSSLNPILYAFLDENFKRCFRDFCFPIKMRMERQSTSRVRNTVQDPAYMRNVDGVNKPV
T2 sequence (P33535 whole entry): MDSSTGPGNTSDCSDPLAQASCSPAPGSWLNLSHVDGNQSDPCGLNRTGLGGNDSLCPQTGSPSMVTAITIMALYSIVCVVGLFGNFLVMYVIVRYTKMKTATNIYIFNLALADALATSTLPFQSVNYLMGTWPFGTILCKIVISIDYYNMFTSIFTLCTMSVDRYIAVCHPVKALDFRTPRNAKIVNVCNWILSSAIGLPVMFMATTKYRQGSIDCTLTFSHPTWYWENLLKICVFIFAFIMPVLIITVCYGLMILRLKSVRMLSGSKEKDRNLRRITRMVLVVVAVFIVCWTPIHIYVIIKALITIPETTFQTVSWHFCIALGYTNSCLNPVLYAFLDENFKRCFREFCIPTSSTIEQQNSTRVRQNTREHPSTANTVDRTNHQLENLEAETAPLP

SMILES	Ki [1, 4] [nM]	Ki [2, 5] [nM]	Ki [3, 6] [nM]	Ki [1, 7] [nM]	Ki [1, 8] [nM]	Ki [2, 9] [nM]	Ki [2, 10] [nM]	Ki [3, 11] [nM]	Ki [3, 12] [nM]	further results
CO[C@@]12CC[C@@H](N[C@H](C(=O)OC(C)(C)C)C(C)C)[C@@H]3Oc4c(O)ccc5c4[C@@]31CCN(CC1CC1)[C@@H]2C5 [69-tBu ester]	4.32	1.23	0.7							
CO[C@@]12CC[C@H](N[C@@H](C(=O)OC(C)(C)C)C(C)C)[C@@H]3Oc4c(O)ccc5c4[C@@]31CCN(CC1CC1)[C@@H]2C5 [70-tBu ester]	18.8	0.63	0.51							
CO[C@@]12CC[C@@H](N[C@@H](C(=O)OC(C)(C)C)C(C)C)[C@@H]3Oc4c(O)ccc5c4[C@@]31CCN(CC1CC1)[C@@H]2C5 [71-tBu ester]	15.2	1.94	0.24							
CO[C@@]12CC[C@H](N[C@@H](CC(C)C)C(=O)OC(C)(C)C)[C@@H]3Oc4c(O)ccc5c4[C@@]31CCN(CC1CC1)[C@@H]2C5 [76-tBu ester]	0.8	0.13	0.092							
CO[C@@]12CC[C@@H](N[C@@H](CC(C)C)C(=O)OC(C)(C)C)[C@@H]3Oc4c(O)ccc5c4[C@@]31CCN(CC1CC1)[C@@H]2C5 [77-tBu ester]	0.68	0.13	0.094							
CC[C@H](C)[C@H](N[C@@H]1CC[C@@]2(OC)[C@H]3Cc4ccc(O)c5c4[C@@]2(CCN3CC2CC2)[C@H]1O5)C(=O)OC(C)(C)C [78-tBu ester]	5.67	0.98	0.52							
CCO[C@@]12CC[C@H](NCC(=O)O)[C@@H]3Oc4c(O)ccc5c4[C@@]31CCN(C)[C@@H]2C5 [Compound 5]				45.2	45.2	0.57	0.57	10.3	10.3	
CCO[C@@]12CC[C@@H](NCC(=O)O)[C@@H]3Oc4c(O)ccc5c4[C@@]31CCN(C)[C@@H]2C5 [Compound 6]				102	102	0.95	0.95	5.31	5.31	
CN1CC[C@]23c4c5ccc(O)c4O[C@H]2[C@@H](N[C@@H](Cc2ccccc2)C(=O)O)CC[C@@]3(O)[C@H]1C5 [Compound 11]					344		2.3		19	
CN1CC[C@]23c4c5ccc(O)c4O[C@H]2[C@H](N[C@@H](Cc2ccccc2)C(=O)O)CC[C@@]3(O)[C@H]1C5 [Compound 12]										Ki [1, 13]: 634 nM; Ki [2, 14]: 6.91 nM; Ki [3, 15]: 8.29 nM
CC(NC1CCC2(O)C3Cc4ccc(O)c5c4C2(CCN3C)C1O5)C(=O)O (stereo not drawn) [Compound 13]										Ki [1, 13]: 710 nM; Ki [2, 14]: 3 nM; Ki [3, 15]: 170 nM
C[C@H](N[C@@H]1CC[C@@]2(O)[C@H]3Cc4ccc(O)c5c4[C@@]2(CCN3C)[C@H]1O5)C(=O)O [Compound 14]					542		11		78.7	
CO[C@@]12CC[C@H](N[C@@H](CCC(N)=O)C(=O)O)[C@@H]3Oc4c(O)ccc5c4[C@@]31CCN(C)[C@@H]2C5 [Compound 17]				351	351	3.24	3.24	5.13	5.13	
CO[C@@]12CC[C@@H](N[C@@H](CCC(N)=O)C(=O)O)[C@@H]3Oc4c(O)ccc5c4[C@@]31CCN(C)[C@@H]2C5 [Compound 18]				290	290	2.48	2.48	4.87	4.87	
CO[C@@]12CC[C@H](N[C@@H](CCSC)C(=O)O)[C@@H]3Oc4c(O)ccc5c4[C@@]31CCN(C)[C@@H]2C5 [Compound 23]				109	109	0.93	0.93	4.03	4.03	
CO[C@@]12CC[C@@H](N[C@@H](CCSC)C(=O)O)[C@@H]3Oc4c(O)ccc5c4[C@@]31CCN(C)[C@@H]2C5 [Compound 24]				468	468	3.88	3.88	2.4	2.4	
CO[C@@]12CC[C@@H](NCC(=O)NCC(=O)O)[C@@H]3Oc4c(O)ccc5c4[C@@]31CCN(C)[C@@H]2C5 [Compound 25]					203		4.62		7.52	
CO[C@@]12CC[C@@H](N[C@@H](CC(N)=O)C(=O)O)[C@@H]3Oc4c(O)ccc5c4[C@@]31CCN(C)[C@@H]2C5 [Compound 27]				103	103	1.26	1.26	2.25	2.25	
CO[C@@]12CC[C@H](N[C@H](C(=O)O)[C@@H](C)O)[C@@H]3Oc4c(O)ccc5c4[C@@]31CCN(C)[C@@H]2C5 [Compound 34]				120	120	1.03	1.03	4.13	4.13	
CO[C@@]12CC[C@@H](N[C@@H](CCCCN)C(=O)O)[C@@H]3Oc4c(O)ccc5c4[C@@]31CCN(C)[C@@H]2C5 [Compound 39]										Ki [1, 13]: 33.7 nM; Ki ([1]; in vitro binding assay, guinea pig brain membranes, read-out: Binding Ki (nM) KOR): 33.7 nM; Ki [2, 14]: 0.53 nM; Ki ([2]; in vitro binding assay, rat brain membranes, read-out: Binding Ki (nM) MOR): 0.53 nM; Ki [3, 15]: 3.34 nM; Ki ([3]; in vitro binding assay, rat brain membranes, read-out: Binding Ki (nM) DOR): 3.34 nM
CO[C@@]12CC[C@H](N[C@@H](CC(C)C)C(=O)O)[C@@H]3Oc4c(O)ccc5c4[C@@]31CCN(C)[C@@H]2C5 [Compound 40]				141	141	0.68	0.68	2.34	2.34	
CO[C@@]12CC[C@@H](N[C@@H](CC(C)C)C(=O)O)[C@@H]3Oc4c(O)ccc5c4[C@@]31CCN(C)[C@@H]2C5 [Compound 41]				297	297	1.32	1.32	1.01	1.01	
CC[C@H](C)[C@H](N[C@H]1CC[C@@]2(OC)[C@H]3Cc4ccc(O)c5c4[C@@]2(CCN3C)[C@H]1O5)C(=O)O [Compound 42]				131	131	0.84	0.84	3.2	3.2	
CC[C@H](C)[C@H](N[C@@H]1CC[C@@]2(OC)[C@H]3Cc4ccc(O)c5c4[C@@]2(CCN3C)[C@H]1O5)C(=O)O [Compound 43]				163	163	1.46	1.46	1.3	1.3	
CCO[C@@]12CC[C@H](N[C@@H](Cc3ccccc3)C(=O)O)[C@@H]3Oc4c(O)ccc5c4[C@@]31CCN(CC1CC1)[C@@H]2C5 [Compound 55]	2.6	0.35	0.7							
CCO[C@@]12CC[C@@H](N[C@@H](Cc3ccccc3)C(=O)O)[C@@H]3Oc4c(O)ccc5c4[C@@]31CCN(CC1CC1)[C@@H]2C5 [Compound 56]	11.6	1.04	1.76							
CO[C@@]12CC[C@H](N[C@@H](Cc3ccccc3)C(=O)O)[C@@H]3Oc4c(O)ccc5c4[C@@]31CCN(CC1CC1)[C@@H]2C5 [Compound 57]	4.21	0.51	1.17							
CO[C@@]12CC[C@@H](N[C@@H](Cc3ccccc3)C(=O)O)[C@@H]3Oc4c(O)ccc5c4[C@@]31CCN(CC1CC1)[C@@H]2C5 [Compound 58]										Ki ([1]; Table 2-6, guinea pig brain membranes, read-out: Binding Ki KOR): 8.42 nM; Ki ([2]; Table 2-6, rat brain membranes, read-out: Binding Ki MOR): 1.23 nM; Ki ([3]; Table 2-6, rat brain membranes, read-out: Binding Ki DOR): 2.02 nM
O=C(O)CN[C@H]1CC[C@@]2(O)[C@H]3Cc4ccc(O)c5c4[C@@]2(CCN3CC2CC2)[C@H]1O5 [Compound 67]										Ki [1, 16]: 2.81 nM; Ki [2, 17]: 0.88 nM; Ki [3, 18]: 13.1 nM
CO[C@@]12CC[C@@H](N[C@@H](C)C(=O)O)[C@@H]3Oc4c(O)ccc5c4[C@@]31CCN(CC1CC1)[C@@H]2C5 [Compound 72]	11.5	2.13	5.8							Ki [1, 16]: 11.5 nM; Ki [2, 17]: 2.13 nM; Ki [3, 18]: 5.8 nM
